# Experiments:
# Format in all cases: in vivo, human
# [1] = test system: adult subjects with relapsing MS; test: Treatment-emergent adverse events and premature treatment discontinuation, phase III study (Study 1)
# Method: A total of 1438 MS patients have received PONVORY at doses of at least 2 mg daily. These patients were included in Study 1 (2-year active-controlled versus teriflunomide 14 mg) [see Clinical Studies (14)] and in a Phase 2 (6-month placebo-controlled) study in patients with MS and the uncontrolled extension studies.
# [2] = test system: adult subjects with relapsing MS; test: EDSS, time to first 12-week / 24-week confirmed disability accumulation (CDA)
# Description: A 12-week CDA is an increase of at least 1.5 in EDSS for subjects with a baseline EDSS score of 0.0 or an increase of at least 1.0 in EDSS for subjects with a baseline EDSS score of 1.0 to 5.0, or an increase of at least 0.5 in EDSS for subjects with a baseline EDSS score≥5.5 which is to be confirmed after 12 weeks.
# All EDSS measurements (with or without relapse, at a scheduled or unscheduled visit) were used to determine the onset of disability accumulation. However, EDSS scores used for confirmation of disability accumulation were obtained at a scheduled visit (i.e., unscheduled visits cannot be used as confirmatory visits) outside any ongoing relapse. In this context, relapse duration is defined as period between start and end dates if available and limited to 90 days from onset if end date is not available or duration is longer than 90 days.
# In order to confirm that the EDSS increase is persistent, all EDSS measurements between the onset and the 12-week EDSS confirmation (minus 7-day visit time-window) need to show an increase in EDSS, meeting the criteria for accumulation of disability as defined above.
# A 24-week CDA is an increase of at least 1.5 in EDSS for subjects with a baseline EDSS score of 0.0 or an increase of at least 1.0 in EDSS for subjects with a baseline EDSS score of 1.0 to 5.0, or an increase of at least 0.5 in EDSS for subjects with a baseline EDSS score≥5.5 which is to be confirmed after 24 weeks.
# The primary endpoint was the annualized relapse rate (ARR) over the study period. Additional outcome measures included: 1) the number of new Gd-enhancing T1 lesions from baseline to Week 108, 2) the number of new or enlarging T2 lesions (without double-counting of lesions) from baseline to Week 108, and 3) the time to 3-month and 6-month confirmed disability progression. A confirmed disability progression was defined as an increase of at least 1.5 in EDSS for patients with a baseline EDSS score of 0, an increase of at least 1.0 in EDSS for patients with a baseline EDSS score of 1.0 to 5.0, or an increase of at least 0.5 in EDSS for patients with a baseline EDSS score at least 5.5, which was confirmed after 3 months and 6 months.
# [3] = test system: adult subjects with relapsing MS; test: Brain MRI lesions (CUAL, Gd+ T1, new/enlarging T2) from baseline to Week 108
# Method: CUAL are new Gd+T1 lesions plus new or enlarging T2 lesions (without double-counting of lesions).
# MRI scans were performed at Visits 2 (Baseline), 10 (Week 60), and 14 (EOT) and at any unscheduled visit (U1, U2, etc.). If applicable, MRI scans also were performed at the corresponding visits in the PTOP (Visits 10A and 14A). Testing at all visits were performed up to 7 days prior to or after the visit date.
# MRI variables included the number and volume of new and total Gd+ lesions on T1-weighted MRI scans, number of new and enlarging lesions and lesion volume on T2-weighted MRI, and global measures of loss of brain tissue.
# T1-weighted imaging before and after i.v. administration of 0.1 mmol/kg body weight (=0.2 mL/kg) of Gd as well as PD-T2-weighted imaging was performed. Gd may cause nausea and vomiting and in very rare cases allergic reactions that could require immediate anti-anaphylactic therapy (such as steroids, epinephrine/adrenaline, etc.).
# Patients (18-55 years) with RMS (expanded disability status scale scores: 0-5.5) were randomized (1:1) to receive ponesimod (PON) 20 mg or teriflunomide (TER) 14 mg for 108 weeks. MRI assessments were: volume of T2 lesions; mean number of new gadolinium-enhancing (Gd+) T1 lesions and new/enlarging T2 lesions; and absence of active MRI lesions at week 108. NEDA-3 status (absence of confirmed relapse, Gd+T1 lesions and new/enlarging T2 lesions on annual MRIs, and 12-week confirmed disability accumulation) was evaluated from baseline to week 108.
structure (smiles),measurement,setting,value
"C/C(O)=C(\C#N)C(=O)Nc1ccc(C(F)(F)F)cc1 [Teriflunomide, reference compound]",Discontinuation reason: Death,[1]; Safety Set,(0.4) %
same,Subjects who prematurely discontinued study treatment,[1]; Safety Set,(16.4) %
same,Subjects with at least one Fatal AE,[1]; Safety Set,(0.4) %
same,Day 1 AESI Electrocardiogram QT prolonged,"[1]; human, in vivo",(0.2) %
same,Day 1 AESI Presyncope,"[1]; human, in vivo",(02) %
same,"AE leading to discontinuation, SOC Blood and lymphatic system disorders","[1]; human, in vivo, 2 year",(0.4) %
same,"AE leading to discontinuation, SOC Cardiac disorders","[1]; human, in vivo, 2 year",(0.4) %
same,"AE leading to discontinuation, SOC Gastrointestinal disorders","[1]; human, in vivo, 2 year",(0.7) %
same,"AE leading to discontinuation, SOC General disorders and administration site conditions","[1]; human, in vivo, 2 year",(0.4) %
same,"AE leading to discontinuation, SOC Hepatobiliary disorders","[1]; human, in vivo, 2 year",(0.4) %
same,"AE leading to discontinuation, SOC Investigations","[1]; human, in vivo, 2 year",(1.8) %
same,"AE leading to discontinuation, SOC Musculoskeletal and connective tissue disorders","[1]; human, in vivo, 2 year",(0.2) %
same,"AE leading to discontinuation, SOC Neoplasms benign, malignant and unspecified (incl cysts and polyps)","[1]; human, in vivo, 2 year",(0.2) %
same,"AE leading to discontinuation, SOC Nervous system disorders","[1]; human, in vivo, 2 year",(0.7) %
same,"AE leading to discontinuation, SOC Pregnancy, puerperium and perinatal conditions","[1]; human, in vivo, 2 year",(0.5) %
same,"AE leading to discontinuation, SOC Psychiatric disorders","[1]; human, in vivo, 2 year",(0.2) %
same,"AE leading to discontinuation, SOC Reproductive system and breast disorders","[1]; human, in vivo, 2 year",(0.2) %
same,"AE leading to discontinuation, SOC Skin and subcutaneous tissue disorders","[1]; human, in vivo, 2 year",(0.4) %
same,"AE leading to discontinuation, SOC Social circumstances","[1]; human, in vivo, 2 year",(0.2) %
same,"AE leading to discontinuation, SOC Surgical and medical procedures","[1]; human, in vivo, 2 year",(0.2) %
same,AESI Effect on heart rate and rhythm (including hypotension),"[1]; human, in vivo, 2 year",(4.2) %
same,AESI Macular edema,"[1]; human, in vivo, 2 year",(0.2) %
same,AESI Non-skin malignancy,"[1]; human, in vivo, 2 year",(0.2) %
same,AESI Skin malignancy,"[1]; human, in vivo, 2 year",(0.2) %
same,"Discontinuation reason: Physician decision, Adverse event","[1]; human, in vivo, 2 year",(1.6) %
same,Discontinuation reason: Pre-specified study treatment discontinuation criteria,"[1]; human, in vivo, 2 year",(2.8) %
same,"Discontinuation reason: Subject decision, Tolerability related","[1]; human, in vivo, 2 year",(0.9) %
same,Incidence of basal cell carcinoma,"[1]; human, in vivo, 2 year",0.2%
same,Overall rate of infections,"[1]; human, in vivo, 2 year",52.1%
same,Subjects discontinued due to AEs or tolerability related reasons,"[1]; human, in vivo, 2 year",2.5%
same,Subjects with at least one Drug-Related AE,"[1]; human, in vivo, 2 year",(42.0) %
same,Subjects with at least one Severe AE,"[1]; human, in vivo, 2 year",(4.6) %
same,TEAE ALT increased,"[1]; human, in vivo, 2 year",9.4%
same,TEAE headache,"[1]; human, in vivo, 2 year",12.7%
same,TEAE nasopharyngitis,"[1]; human, in vivo, 2 year",16.8%
same,TEAE upper respiratory tract infection,"[1]; human, in vivo, 2 year",10.4%
same,Adverse reaction: C-reactive protein increased,"[1]; human, in vivo, 2 years",1%
same,Adverse reaction: Cough,"[1]; human, in vivo, 2 years",2%
same,Adverse reaction: Dizziness,"[1]; human, in vivo, 2 years",3%
same,Adverse reaction: Dyspnea,"[1]; human, in vivo, 2 years",1%
same,Adverse reaction: Hepatic transaminase elevation,"[1]; human, in vivo, 2 years",12%
same,Adverse reaction: Hypercholesterolemia,"[1]; human, in vivo, 2 years",1%
same,Adverse reaction: Hypertension,"[1]; human, in vivo, 2 years",9%
same,Adverse reaction: Pain in extremity,"[1]; human, in vivo, 2 years",3%
same,Adverse reaction: Pyrexia,"[1]; human, in vivo, 2 years",1%
same,Adverse reaction: Somnolence,"[1]; human, in vivo, 2 years",2%
same,Adverse reaction: Urinary tract infection,"[1]; human, in vivo, 2 years",5%
same,Adverse reaction: Vertigo,"[1]; human, in vivo, 2 years",1%
same,AESI Macular edema,[1]; in vivo,none
same,Discontinuation reason: Lost to follow-up,[1]; in vivo,(0.5) %
same,Discontinuation reason: Physician decision,[1]; in vivo,(4.1) %
same,"Discontinuation reason: Physician decision, Lack of efficacy/treatment failure",[1]; in vivo,(1.8) %
same,"Discontinuation reason: Physician decision, Other",[1]; in vivo,(0.7) %
same,Discontinuation reason: Subject decision,[1]; in vivo,(8.7) %
same,"Discontinuation reason: Subject decision, Efficacy related",[1]; in vivo,(2.5) %
same,"Discontinuation reason: Subject decision, Not known",[1]; in vivo,(0.7) %
same,"Discontinuation reason: Subject decision, Other",[1]; in vivo,(4.6) %
same,Proportion of Patients with 3-month Confirmed Disability Progression,[2]; Kaplan-Meier estimates at Week 108,13.2%
same,Subjects with 24-week CDA,[2]; up to EOS,9.9%
same,CUAL mean estimate (Lesions per year),"[3]; baseline to Week 108, negative binomial regression, Full Analysis Set",3.164 lesions per year
same,Mean number of new Gd+ T1 lesions per scan / per MRI,[3]; baseline to week 108,0.43

# — US12419869B2, “Methods of treating multiple sclerosis” (Vanda Pharmaceuticals Inc., priority 2021, dated 2025)
